Tested on: not given
Assay: not given
Conditions: not given

Row | SMILES | melting point
1 | c1nnn2c1COC1CNC[C@H]12 (some centres unmarked) | 217 °C (dec.)
2 | CCN1CC2OCc3cnnn3[C@@H]2C1 (some centres unmarked) | 59 to 60 °C
3 | COc1ccc(CN2CC3OCc4cnnn4[C@@H]3C2)cc1 (stereo partly drawn) [Example 1, (5a,8a-trans)-7-(4-methoxybenzyl)-4,5a,6,7,8,8a-hexahydropyrrolo[3,4-b][1,2,3]triazolo[1,5-d][1,4]oxazine] | 150 to 151 °C
4 | CS(=O)(=O)N1CC2OCc3cnnn3[C@@H]2C1 (stereo partly drawn) [Example 14, (5a,8a-trans)-7-(methylsulfonyl)-4,5a,6,7,8,8a-hexahydropyrrolo[3,4-b][1,2,3]triazolo[1,5-d][1,4]oxazine] | 204 to 206 °C
5 | O=S(=O)(c1ccc(Br)cc1)N1CC2OCc3cnnn3[C@@H]2C1 (stereo partly drawn) [Example 15, (5a,8a-trans)-7-(4-bromophenylsulfonyl)-4,5a,6,7,8,8a-hexahydro pyrrolo[3,4-b][1,2,3]triazolo[1,5-d][1,4]oxazine] | 220 to 221 °C
6 | O=S(=O)(c1ccc(F)cc1)N1CC2OCc3cnnn3[C@@H]2C1 (stereo partly drawn) [Example 18, (5a,8a-trans)-7-(4-fluorophenylsulfonyl)-4,5a,6,7,8,8a-hexahydro pyrrolo[3,4-b][1,2,3]triazolo[1,5-d][1,4]oxazine] | 208 to 209 °C
7 | CS(=O)(=O)N1CC2OCc3c(-c4ccccc4)nnn3[C@@H]2C1 (some centres unmarked) [Example 19, (5a,8a)-7-(methylsulfonyl)-3-phenyl-4,5a,6,7,8,8a-hexahydropyrrolo[3,4-b][1,2,3]triazolo[1,5-d][1,4]oxazine] | 293 to 295 °C
8 | O=S(=O)(c1ccc(F)cc1)N1CC2OCc3c(-c4ccccc4)nnn3[C@@H]2C1 (stereo partly drawn) [Example 20, (5a,8a-trans)-7-(4-fluorophenylsulfonyl)-3-phenyl-4,5a,6,7,8,8a-hexa hydropyrrolo[3,4-b][1,2,3]triazolo[1,5-d][1,4]oxazine] | 287 to 288 °C
9 | O=C(c1ccccc1)N1CC2OCc3c(-c4ccccc4)nnn3[C@@H]2C1 (stereo partly drawn) [Example 27, phenyl((5a,8a-trans)-3-phenyl-5a,6,8,8a-tetrahydropyrrolo[3,4-b][1,2,3]triazolo[1,5-d][1,4]oxazin-7(4H)-yl)methanone] | 237 to 239 °C
10 | O=C(c1cccs1)N1CC2OCc3c(-c4ccccc4)nnn3[C@@H]2C1 (stereo partly drawn) [Example 30, ((5a,8a-trans)-3-phenyl-5a,6,8,8a-tetrahydropyrrolo[3,4-b][1,2,3]triazolo[1,5-d][1,4]oxazin-7(4H)-yl)(thiophen-2-yl)methanone] | 248 to 249 °C
11 | O=C(OCc1ccccc1)N1CC2OCc3c(-c4ccccc4)nnn3[C@@H]2C1 (stereo partly drawn) [Example 34, (5a,8a-trans)-benzyl3-phenyl-5a,6,8,8a-tetrahydropyrrolo[3,4-b][1,2,3] triazolo[1,5-d][1,4]oxazine-7(4H)-carboxylate] | 209 to 212 °C
12 | c1cnc(N2CC3OCc4cnnn4[C@@H]3C2)nc1 (stereo partly drawn) [Example 35, (5a,8a-trans)-7-(pyrimidin-2-yl)-4,5a,6,7,8,8a-hexahydropyrrolo[3,4-b][1,2,3]triazolo[1,5-d][1,4]oxazine] | 256 to 257 °C
13 | c1ccc(-c2nnn3c2COC2CN(c4ncccn4)C[C@H]23)cc1 (stereo partly drawn) [Example 40, (5a,8a-trans)-3-phenyl-7-(pyrimidin-2-yl)-4,5a,6,7,8,8a-hexahydro pyrrolo[3,4-b][1,2,3]triazolo[1,5-d][1,4]oxazine] | 256 to 257 °C
14 | c1ccc(-c2nnn3c2COC2CN(c4ccccc4)C[C@H]23)cc1 (stereo partly drawn) [Example 45, (5a,8a-trans)-3,7-diphenyl-4,5a,6,7,8,8a-hexahydropyrrolo[3,4-b][1,2,3] triazolo[1,5-d][1,4]oxazine] | 256 to 257 °C
15 | Cc1nnn2c1CO[C@H]1CN(C(=O)OC(C)(C)C)C[C@@H]12 [Example 54, (5aS,8aS)-tert-butyl 3-methyl-5a,6,8,8a-tetrahydropyrrolo[3,4-b][1,2,3] triazolo[1,5-d][1,4]oxazine-7(4H)-carboxylate] | 195 to 196 °C
16 | CC(C)(C)OC(=O)N1C[C@@H]2OCc3c(-c4ccccc4)nnn3[C@H]2C1 [Example 55, (5aS,8aS)-tert-butyl 3-phenyl-5a,6,8,8a-tetrahydropyrrolo[3,4-b][1,2,3] triazolo[1,5-d][1,4]oxazine-7(4H)-carboxylate] | 236 to 237 °C
17 | CC(C)(C)OC(=O)N1C[C@@H]2OCc3c(-c4cccc(F)c4)nnn3[C@H]2C1 [Example 56, (5aS,8aS)-tert-butyl 3-(3-fluorophenyl)-5a,6,8,8a-tetrahydropyrrolo[3,4-b][1,2,3]triazolo[1,5-d][1,4]oxazine-7(4H)-carboxylate] | 249 to 250 °C
18 | CC(C)(C)OC(=O)N1CC2OCc3c(-c4ccc(C(F)(F)F)cc4)nnn3[C@H]2C1 (stereo partly drawn) [Example 57, (5aS,8aS)-tert-butyl-3-(4-(trifluoromethyl)phenyl)-5a,6,8,8a-tetrahydropyrrolo[3,4-b][1,2,3]triazolo[1,5-c][1,4]oxazine-7(4H)-carboxylate] | 238 to 239 °C

Now from value to compound:

Row | melting point | SMILES
19 | 168 to 170 °C | O=S(=O)(c1ccccc1)N1CC2OCc3cnnn3[C@@H]2C1 (stereo partly drawn) [Example 16, (5a,8a-trans)-7-(phenylsulfonyl)-4,5a,6,7,8,8a-hexahydropyrrolo[3,4-b][1,2,3]triazolo[1,5-d][1,4]oxazine]
20 | 178 to 180 °C | O=S(=O)(c1ccccc1F)N1CC2OCc3cnnn3[C@@H]2C1 (stereo partly drawn) [Example 17, (5a,8a-trans)-7-(2-fluorophenylsulfonyl)-4,5a,6,7,8,8a-hexahydro pyrrolo[3,4-b][1,2,3]triazolo[1,5-d][1,4]oxazine]
21 | 188 to 190 °C | O=C(c1ccccc1F)N1CC2OCc3cnnn3[C@@H]2C1 (stereo partly drawn) [Example 21, (2-fluorophenyl)((5a,8a-trans)-5a,6,8,8a-tetrahydropyrrolo[3,4-b][1,2,3]triazolo[1,5-d][1,4]oxazin-7(4H)-yl)methanone]
22 | 173 to 174 °C | O=C(c1ccccc1)N1CC2OCc3cnnn3[C@@H]2C1 (stereo partly drawn) [Example 22, phenyl((5a,8a-trans)-5a,6,8,8a-tetrahydropyrrolo[3,4-b][1,2,3]triazolo[1,5-d][1,4]oxazin-7(4H)-yl)methanone]
23 | 134 to 135 °C | O=C(CCc1ccccc1)N1CC2OCc3cnnn3[C@@H]2C1 (stereo partly drawn) [Example 24, 3-phenyl-1-((5a,8a-trans)-5a,6,8,8a-tetrahydropyrrolo[3,4-b][1,2,3]triazolo[1,5-d][1,4]oxazin-7(4H)-yl)propan-1-one]
24 | 186 to 188 °C | O=C(c1cccs1)N1CC2OCc3cnnn3[C@@H]2C1 (stereo partly drawn) [Example 26, ((5a,8a-trans)-5a,6,8,8a-tetrahydropyrrolo[3,4-b][1,2,3]triazolo[1,5-d][1,4]oxazin-7(4H)-yl)(thiophen-2-yl)methanone]
25 | 194 to 195 °C | CCCCNC(=O)N1CC2OCc3cnnn3[C@@H]2C1 (stereo partly drawn) [Example 31, (5a,8a-trans)-N-butyl-5a,6,8,8a-tetrahydropyrrolo[3,4-b][1,2,3]triazolo[1,5-d][1,4]oxazine-7(4H)-carboxamide]
26 | 227 to 228 °C | O=C(Nc1ccccc1)N1CC2OCc3cnnn3[C@@H]2C1 (stereo partly drawn) [Example 32, (5a,8a-trans)-N-phenyl-5a,6,8,8a-tetrahydropyrrolo[3,4-b][1,2,3] triazolo[1,5-d][1,4]oxazine-7(4H)-carboxamide]
27 | 275 to 277 °C | O=C(Nc1ccccc1)N1CC2OCc3c(-c4ccccc4)nnn3[C@@H]2C1 (stereo partly drawn) [Example 33, (5a,8a-trans)-N,3-diphenyl-5a,6,8,8a-tetrahydropyrrolo[3,4-b][1,2,3] triazolo[1,5-d][1,4]oxazine-7(4H)-carboxamide]
28 | 222 to 223 °C | c1ccc(N2CC3OCc4cnnn4[C@@H]3C2)cc1 (stereo partly drawn) [Example 42, (5a,8a-trans)-7-phenyl-4,5a,6,7,8,8a-hexahydropyrrolo[3,4-b][1,2,3] triazolo[1,5-d][1,4]oxazine]
29 | 238 °C (dec.) | Clc1ccc(N2CC3OCc4cnnn4[C@@H]3C2)cc1 (stereo partly drawn) [Example 43, (5a,8a-trans)-7-(4-chlorophenyl)-4,5a,6,7,8,8a-hexahydropyrrolo[3,4-b][1,2,3]triazolo[1,5-d][1,4]oxazine]
30 | 216 °C (dec.) | c1ccc(N2CC3OCc4cnnn4[C@@H]3C2)nc1 (stereo partly drawn) [Example 44, (5a,8a-trans)-7-(pyridin-2-yl)-4,5a,6,7,8,8a-hexahydropyrrolo[3,4-b][1,2,3]triazolo[1,5-d][1,4]oxazine]
31 | 155 to 157 °C | CC(C)(C)OC(=O)N1C[C@@H]2OCc3cnnn3[C@H]2C1 [Example 53, (5aS,8aS)-tert-butyl 5a,6,8,8a-tetrahydropyrrolo[3,4-b][1,2,3]triazolo[1,5-d][1,4]oxazine-7(4H)-carboxylate]

Target: T1, σ1-receptor (Cavia porcellus, UniProt Q60492)
T1 construct: Guinea pig brains were homogenized in 10 vols; (w/v) of Tris-HCl 50 mM 0.32 M sucrose; from tissue; host or cells: guinea pig brain membranes
T1 sequence (Q60492 whole entry): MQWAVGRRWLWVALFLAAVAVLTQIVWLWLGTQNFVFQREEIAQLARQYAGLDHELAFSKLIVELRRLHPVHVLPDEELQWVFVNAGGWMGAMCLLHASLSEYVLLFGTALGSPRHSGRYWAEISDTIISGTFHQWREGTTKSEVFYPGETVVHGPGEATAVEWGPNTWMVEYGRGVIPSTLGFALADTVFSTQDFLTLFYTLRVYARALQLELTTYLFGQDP
Assay: σ1-receptor binding assay, [3H]-(+)-pentazocine, guinea pig brain membranes
Conditions: [3H]-(+)-pentazocine 5.0 nM
Method: Brain membrane preparation and binding assays for the σ1-receptor were performed as described (DeHaven-Hudkins, D. L., L.C. Fleissner, and F. Y. Ford-Rice, 1992, Characterization of the binding of [^3H](+)pentazocine to σ recognition sites in guinea pig brain, Eur. J. Pharmacol. 227, 371-378) with some modifications. Guinea pig brains were homogenized in 10 vols. (w/v) of Tris-HCl 50 mM 0.32 M sucrose, pH 7.4, with a Kinematica Polytron PT 3000 at 15000 r.p.m. for 30 s. The homogenate was centrifuged at 1000 g for 10 min at 4° C. and the supernatants collected and centrifuged again at 48000 g for 15 min at 4° C. The pellet was resuspended in 10 volumes of Tris-HCl buffer (50 mM, pH 7.4), incubated at 37° C. for 30 min, and centrifuged at 48000 g for 20 min at 4° C. Following this, the pellet was re-suspended in fresh Tris-HCl buffer (50 mM, pH 7.4) and stored on ice until use.
The radioligand used was [^3H]-(+)-pentazocine at 5.0 nM and the final volume was 200 μl. The incubation was initiated with the addition of 100 μA of membrane at a final tissue concentration of approximately 5 mg tissue net weight/mL and the incubation time was 150 m. at 37° C. After incubation, the membranes were collected onto pretreated glass fiber filterplate (MultiScreen-FC, Millipore), with polyethylenimine 0.1%. The filters were washed two times with 200 μA of washing buffer (50 mM Tris Cl, pH=7.4) and then 25 μA of Ecoscint H liquid scintillation cocktail were added. Microplates were allowed to set for several hours and then quantified by liquid scintillation spectrophotometry (1450 Microbeta, Wallac). Nonspecific binding was determined with 1 μM haloperidol.

Row | Ki | SMILES
32 | > 1000 nM | COc1ccc(CN2C[C@@H]3[C@@H](C2)OCc2c(C)nnn23)cc1 (relative stereo) [Example 2, (5a,8a-trans)-7-(4-methoxybenzyl)-3-methyl-4,5a,6,7,8,8a-hexahydro pyrrolo[3,4-b][1,2,3]triazolo[1,5-d][1,4]oxazine]

Source: patent US8362011B2, “Tricyclic triazolic compounds” (Laboratories del Dr. Esteve, S.A., priority 2007, dated 2013)
